Entries after “also recorded” stand apart in the source; their conditions may differ. Where a SMILES comes first, the peptide text is derived from it. The star is where a group is joined. Cbz = O=C(OCc1ccccc1)*; CH2F = FC*
Experiments:
[1] = test system: human endothelial cells; test: Human endothelial cell monolayer survival and repopulation following cryopreservation (Calcein-AM assay); format: cell-based; conditions: for post-thaw viability: P/P conditioning, U10 and U5G10 CP solutions vs matched non-treated samples; for day 1 survival increase over non-treated samples: U10G10
Description: A series of cryopreservation experiments was conducted on human endothelial and smooth muscle cell suspensions and monolayers to assess the performance of four (4) commercially available cryopreservation solutions: DP6, VS55, VS83, and M22, as well as nine (9) additional solutions: […] Eurocollins (EC) solution was included as a negative control, i.e., no cryoprotective agent (CPA) control, while media+10% DMSO ([…]) is a typical solution (10% DMSO) used in standard controlled rate cryopreservation protocols known to the skilled individual. Unisol is representative of the class of intracellular-like or intracellular-type solutions/media, whereas EC solution and culture media are representative of the class of extracellular-like or extracellular-type solutions/media. Other studies presented herein provide additional examples of intracellular- and extracellular-like solutions; other intracellular- and extracellular-like solutions are similarly useful and are known to those of skill in the art. FIG. 1 illustrates the results of an assessment of human endothelial cell survival following preservation. Monolayers of endothelial cells were frozen or vitrified and thawed in the indicated solutions (control, Uni, […], DP6, VS55, VS83, and […]). Following thawing, samples were diluted in culture media, placed into culture and assessed for viability at 1 day (24 hours) post-thaw and following seven (7) days of recovery using the Calcein-AM assay. […] The Uni and U10 conditions provided outcomes exceeding that of the VS55, VS83 and […] conditions. Therefore, subsequent studies (see, e.g., FIG. 2) focused on Unisol-based solutions with various CPAs and concentrations, in addition to the DP6 commercial cryopreservation solution. […] Monolayers of endothelial cells were frozen or vitrified and thawed in the indicated solutions. […] For pre-freeze (PF), post-warming (PW) and pre/post (P/P) conditioning studies, molecular modulation agents targeting inhibition of apoptosis (Caspase inhibitor IV, 8, 9 and a combination of Caspases 8 and 9), reduction of free-radical damage (resveratrol and NAC), and activation of the unfolded protein response (salubrinal) were employed as supplements in the media 1 hour prior to freezing (pre-freeze condition) or for 1 day following thawing and CPA removal from frozen samples (post-warming condition). Based on outcomes in the studies in Example 1, PF, PW and P/P conditioning were examined in Examples 2-3 using a series of Unisol-based solutions (Uni, U5, U10, U20, UG10, U5G10 and U10G10). […] Patent Application Publication No. US 2016/0097583 A1 (Ser. No. 14/876,087), which is incorporated by reference in its entirety as though fully set forth herein. The freeze and thaw process was slightly modified relative to the disclosure of U.S. Patent Application Publication No. US 2016/0097583 A1 by the addition of a 0.090 inch aluminum plate inserted into the bottom of the 96 well plate to aid in increasing cooling and heating uniformity throughout the plate, thereby reducing the well-to-well variability within the samples. The device was used to thaw the samples, which were frozen in situ in monolayers in standard 96-well tissue culture plates. […] A mitochondrial-mediated apoptotic inhibitor (Caspase 9) and a membrane-mediated apoptotic inhibitor (Caspase 8) were investigated to evaluate the involvement and impact of modulation of various apoptotic induction pathways. Additionally, a pan-Caspase inhibitor (Cas IV) was also investigated to assess the impact of global pathway modulation. As with the viability studies, cell survival and repopulation were assessed using Calcein-AM assays and analyzed using fluorescent microscopy (Zeiss). Survival was determined at 24 hours post-thaw to allow for the manifestation of any delayed onset cell death pathways to be executed. Further, cell recovery was included to evaluate the long term potency and repopulation potential of the various samples. […]

[2] = test system: human smooth muscle cells; test: Human smooth muscle cell monolayer survival and repopulation following cryopreservation (Calcein-AM assay); format: cell-based
Description: (§1) The device was used to thaw the samples, which were frozen in situ in monolayers in standard 96-well tissue culture plates. Samples were thawed from less than −170° C. to about 4° C. in the 96-well plate format in about 5 mins in a dry clean (“sterile”) environment.
The study described in example 3.1 focuses on the collection of cell survival data and the impact of post-thaw conditioning on human smooth muscle cells (SMCs). Specific activities included application of the high throughput monolayer sample cryopreservation protocol and collection of data (survival and cell death) from samples frozen using 6 unique cryopreservation solutions (U5, U10, U20, U5G10, U10G10, DP6) and 6 unique modulators (resveratrol, salubrinal, caspase inhibitors (IV, 8, 9) and NAC). Survival was determined at 24 hours post-thaw to allow for the manifestation of any delayed onset cell death pathways to be executed. Further, cell recovery was included to evaluate the long term potency and repopulation potential of the various samples.
A series of experiments was conducted to evaluate the performance of several solutions (U5, U10, U20, U5G10, U10G10 and DP6) as well as the impact of pre-freeze (PF) and post-warming (PW) conditioning with the apoptotic inhibitors Caspase 8, Caspase 9 and Caspase IV inhibitors. Cell samples were processed using the monolayer CP protocol and analyzed following 24 hours to 7 days post thaw for survival and recovery. These experiments were conducted to evaluate the impact of molecular modulators (inhibitors) during pre-freeze or post-thaw recovery on cell survival when added to the media 1 hour prior to or 24 hour following cryopreservation. […] To this end, samples were probed with Calcein-AM, incubated for 30 mins in the dark and then imaged using a Zeiss Axiovert 200 fluorescence microscope and Axiovision software. Images were taken at 24 hours to 7 days post-thaw to allow for assessment of solution and post-thaw conditioning agent performance.
As in previous experiments, the 24 hour time point was used for initial survival assessment, as this time point allows for the manifestation of molecular based cell stress-induced death. This provides a more accurate measure of survival than 0 or 1 hour post-thaw assessment, as is typically used. The 3 day time point was selected to assess re-population potential of any surviving cells as an indicator of long term potency.
For smooth muscle cell pre-freeze (PF) conditioning studies, 1 hour prior to CP addition, culture media was decanted and 100 μL of fresh media supplemented with caspase 8, 9, or IV was added to each respective well. Samples were then incubated at 37° C. for 1 hour, followed by media removal and addition of 100 μL of CP solution to samples followed by cryopreservation as described above. Following preservation, samples were thawed, diluted, and placed into culture. Following 24 hours recovery, cell viability was assessed.
For smooth muscle cell post-warming (PW) conditioning studies, following thawing and cryopreservation, CP solution was removed or diluted with culture media supplemented with caspase 8, 9, or IV. FIG. 18 illustrates the impact of apoptotic inhibition post-freeze conditioning on human smooth muscle cell survival 1 day following cryopreservation with and without reduced CPA.
For P/P conditioning studies, 1 hour prior to CP addition, culture media was decanted and 100 μL of fresh media supplement with caspase 8, 9, or IV was added to each respective well.

[3] = test system: endothelial and smooth muscle cells; test: Summary of Examples 2-3: post-thaw survival of endothelial and smooth muscle cells (Calcein-AM assay); format: cell-based, human
Description: For pre-freeze (PF), post-warming (PW) and pre/post (P/P) conditioning studies, molecular modulation agents targeting inhibition of apoptosis (Caspase inhibitor IV, 8, 9 and a combination of Caspases 8 and 9), reduction of free-radical damage (resveratrol and NAC), and activation of the unfolded protein response (salubrinal) were employed as supplements in the media 1 hour prior to freezing (pre-freeze condition) or for 1 day following thawing and CPA removal from frozen samples (post-warming condition).
as §1
The P/P regime was followed by PW using Caspase 8 inhibition or NAC inhibition.

[4] = test system: human hematopoietic stem cells (hHSC); test: Human hematopoietic stem cell survival following cryopreservation (Calcein-AM assay); format: cell-based; conditions: cryopreserved in DMSO 10%
Description: The studies described in example 4 focus on the collection of cell survival data and the impact of post-thaw conditioning on human stem cells (hHSCs). Specific activities included standard cryopreservation protocol and collection of data (survival and cell death) from samples frozen using 6 unique cryopreservation solutions (Media, M5, M10, Unisol, U5 and U10) and 4 unique modulators (resveratrol (OSI), salubrinal (UPRI), caspase inhibitor (AI) and NAC). Survival was determined at 24 hours post-thaw to allow for the manifestation of any delayed onset cell death pathways to be executed. […]
A series of experiments was conducted to evaluate the performance of several solutions (media, M5, M10, Unisol, U5, and U10) as well as the impact of post-warming (PW) conditioning with the molecular modulators. Cell samples were processed using a standard controlled rate cooling suspension protocol and analyzed following 24 hours to 7 days post thaw for survival and recovery. […] To this end, samples were probed with Calcein-AM, incubated for 30 mins in the dark and then imaged using a Zeiss Axiovert 200 fluorescence microscope and Axiovision software. […]
For hHSC post-warming (PW) conditioning studies, following thawing each sample was diluted with culture media supplemented with the respective molecular modulator added to the dilution media. Samples were incubated in culture for 24 hours, then assessed. […]

[5] = PF and PW caspase inhibitor conditioning, U10G10 solution
[6] = PF conditioning, U10, U20, U5G10 and U10G10
[7] = P/P conditioning, vs non-conditioned samples

SMILES: CC[C@H](C)[C@H](NC(=O)OCc1ccccc1)C(=O)N[C@@H](CCC(=O)OC)C(=O)N[C@H](C(=O)N[C@@H](CC(=O)OC)C(=O)CF)[C@@H](C)O [Caspase 8 inhibitor] (Cbz-IE(OMe)TD(OMe)-CH2F)
- day 1 cell survival / post-thaw viability ([1]; P/P caspase inhibitor conditioning, Unisol+CPA samples vs non-treated matched samples): improvement in cell survival
- cell repopulation / day 3 recovery ([1]; P/P caspase inhibitor conditioning, Unisol+CPA solutions and DP6): most beneficial; also recorded: marked improvement in all solutions in day 3 recovery
- cell recovery and repopulation (overall) [1, 5]: improvement in cell recovery and repopulation
- recovery at 3 days post-thaw ([1]; PF caspase inhibitor conditioning, Unisol+CPA conditions): improvement in recovery
- day 3 recovery ([1]; PW caspase inhibitor conditioning, U10, U20 and U5G10 vs non-treated): marked improvement in day 3 recovery
- cell recovery 3 days post-thaw ([1]; PW caspase inhibitor conditioning, Unisol+CPA conditions): improvement in cell recovery
- day 1 cell survival ([1]; post-warming (PW) caspase inhibitor conditioning 24 hours, Unisol+CPA solutions, vs non-treated matched samples): overall increase in cell survival
- day 1 cell survival ([1]; post-warming (PW) caspase inhibitor conditioning 24 hours, Unisol+CPA solutions, vs non-treated matched samples, listed as Caspase 8): slight improvement in cell survival
- cell survival ([1]; pre/post (P/P) caspase inhibitor conditioning, U10G10 solution, day 1): ~90%
- increase over non-treated U10G10 samples ([2]; P/P caspase inhibitor conditioning, U10G10, day 1 survival): ~50%
- day 1 survival, % of controls ([2]; P/P caspase inhibitor conditioning, U10G10, listed as Caspase 8): ~60%
- day 1 survival, % of controls ([2]; P/P caspase inhibitor conditioning, U10G10, listed as caspase 8): about 70%
- day 1 survival, % of controls ([2]; P/P caspase inhibitor conditioning, U10G10, listed as caspase 8 inhibitor): ~70%
- cell repopulation / day 3 recovery ([2]; P/P caspase inhibitor conditioning, Unisol+CPA conditions and DP6): marked improvement in day 3 recovery
- smooth muscle cell recovery and repopulation (overall) [2, 5]: improvement in smooth muscle cell recovery and repopulation
- recovery at 3 days post-thaw ([2]; PW caspase inhibitor conditioning): complete recovery of the samples to pre-freeze controls
- day 1 cell survival ([2]; PW caspase inhibitor conditioning, Unisol+CPA solutions): slight increase in cell survival
- day 1 post-thaw cell survival and cell recovery ([3]; PF, PW and P/P conditioning, Unisol based solutions): improved
- increase in cell survival over non-treated samples ([3]; PW conditioning): ~50%
- increase in survival over non-treated samples ([3]; U10G10, P/P conditioning, day 1): > 2 fold

SMILES: C[S+](C)[O-] [DMSO, dimethyl sulfoxide]
- cell loss rates [4]: greater than 50%

SMILES: Oc1ccc(C=Cc2cc(O)cc(O)c2)cc1 [resveratrol]
- post-thaw viability [1]: increase in post-thaw viability
- day 1 survival increase over non-treated samples ([1]; PF conditioning 1 hour): ~2 fold
- day 1 cell survival [1, 6]: Improvement
- day 1 survival increase over non-treated samples ([1]; PW conditioning 24 hours): ~2 fold
- day 1 cell survival [2, 7]: slight to no improvement in cell survival

SMILES: O=C(/C=C/c1ccccc1)NC(NC(=S)Nc1cccc2cccnc12)C(Cl)(Cl)Cl (stereo not drawn) [salubrinal]
- post-thaw viability [1]: increase in post-thaw viability
- day 1 cell survival [1, 6]: Improvement
- day 1 cell survival [2, 7]: slight to no improvement in cell survival
- day 1 cell survival ([2]; PW conditioning, vs non-treated matched samples): minimal benefit
